Some test systems named below: SNB-75 CNS; CCRF-CEM leukemia; K-562 leukemia; A498 renal; MDA-MB-435; MDA-N; DU-145 prostate; MOLT-4 leukemia; SN12C renal; NCI-H522 lung; EKVX NSCLC; MCF7 breast.
Common to all, as to experiment: inhibition of tumour cell growth, NCI panel, 48 h

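A five-concentration, 48-hour dose response in 96-well plates underlies each endpoint, interpolated linearly between surrounding concentrations. Definition used: TGI = concentration required for complete inhibition of growth.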

For `OC1(c2ccc(-c3ccccc3)cc2)c2ccccc2C2=NCCN21` (stereo not given), the TGI in the assay with SNB-75 CNS was 48.9 µM; in the assay with CCRF-CEM leukemia, more than 100 µM; in the assay on K-562 leukemia it was more than 100 µM; with A498 renal, more than 100 µM; in the assay on MDA-MB-435 it was more than 100 µM; in the assay with MDA-N, more than 100 µM. Moreover, the TGI in the assay with DU-145 prostate, with MOLT-4 leukemia and in the assay with SN12C renal was more than 100 µM throughout.

For `O=c1cc(CO)oc2c3c(cc(O)c12)OCC(COC1OC(CO)C(O)C(O)C1O)=CC3` (stereo not given), the TGI with SNB-75 CNS, in the assay on CCRF-CEM leukemia, in the assay with K-562 leukemia, with NCI-H522 lung, in the assay on EKVX NSCLC and in the assay on A498 renal was more than 100 µM each time. Further, the TGI with MOLT-4 leukemia and with SN12C renal was more than 100 µM in each case.

On to `COc1ccc(-n2c(N)c(C#N)[nH]c2=O)cc1`, for which the TGI with SNB-75 CNS, in the assay on CCRF-CEM leukemia, in the assay with K-562 leukemia, with NCI-H522 lung, in the assay with EKVX NSCLC and with A498 renal was more than 10 µM in each case. Also, the TGI with MDA-MB-435, with MDA-N, with DU-145 prostate, with MOLT-4 leukemia and with SN12C renal was more than 10 µM each time.

Take `CN(C)CCNC(=O)c1ccc(NCCCN(C)CCCNc2ccc(C(=O)NCCN(C)C)c3[nH]c4ccccc4c(=O)c23)c2c(=O)c3ccccc3[nH]c12`: the TGI in the assay with SNB-75 CNS came to 0.0844 µM; in the assay with CCRF-CEM leukemia, 0.406 µM; in the assay with NCI-H522 lung, 0.143 µM; with EKVX NSCLC, 0.674 µM; in the assay with A498 renal, 0.502 µM; in the assay on MDA-MB-435 it was 0.194 µM. For the same compound, the TGI in the assay with MCF7 breast worked out at 0.44 µM; in the assay on MOLT-4 leukemia, 1.09 µM; in the assay on SN12C renal it was 0.397 µM.

On to `CC(=O)OCC1OC(n2cc(F)c(=O)[nH]c2=O)C(NC(=O)OCc2ccccc2)C(OC(C)=O)C1OC(C)=O` (stereo not given), for which the TGI in the assay on SNB-75 CNS, with CCRF-CEM leukemia, in the assay on K-562 leukemia, with NCI-H522 lung, in the assay with EKVX NSCLC and in the assay on A498 renal was more than 100 µM each time. Further, the TGI with MCF7 breast, in the assay on MOLT-4 leukemia and in the assay with SN12C renal was more than 100 µM in each case.

On to `O=C(/C=C/c1ccccc1)CSc1ncn[nH]1`, for which the TGI with SNB-75 CNS, in the assay on CCRF-CEM leukemia, in the assay on K-562 leukemia, in the assay with NCI-H522 lung, in the assay with EKVX NSCLC and in the assay on MCF7 breast was more than 100 µM throughout. The TGI with MDA-N, with DU-145 prostate, in the assay on MOLT-4 leukemia and with SN12C renal was more than 100 µM in each case.

For `COC(=O)CCC1=C(CC(=O)OC)C(C)(OC)N=C1NC(=O)OCc1ccccc1` (stereo not given), the TGI with SNB-75 CNS, in the assay with CCRF-CEM leukemia, in the assay with K-562 leukemia, in the assay on NCI-H522 lung, in the assay with EKVX NSCLC and in the assay with A498 renal was more than 100 µM in each case. For the same compound, the TGI in the assay on MDA-MB-435, in the assay with MCF7 breast, with DU-145 prostate, with MOLT-4 leukemia and in the assay with SN12C renal was more than 100 µM each time.

As for `Cc1cnc2sn(-c3ccc([N+](=O)[O-])cc3)c(=O)c2c1`, the TGI in the assay with SNB-75 CNS was 51.6 µM; in the assay with K-562 leukemia, more than 100 µM; in the assay with NCI-H522 lung it was more than 100 µM; in the assay with EKVX NSCLC, more than 100 µM; in the assay on MDA-MB-435, more than 100 µM; in the assay with MCF7 breast, more than 100 µM. For the same compound, the TGI with MDA-N, in the assay on DU-145 prostate, in the assay on MOLT-4 leukemia and in the assay with SN12C renal was more than 100 µM throughout.

In the case of `CC(=O)OC12C3C4C1C1C2C3C41OC(C)=O` (stereo not given), the TGI in the assay with SNB-75 CNS, in the assay on CCRF-CEM leukemia, with K-562 leukemia, with NCI-H522 lung, in the assay on EKVX NSCLC and in the assay on A498 renal was more than 100 µM in each case. Further, the TGI in the assay on MDA-MB-435, with MCF7 breast, in the assay on DU-145 prostate, in the assay on MOLT-4 leukemia and in the assay with SN12C renal was more than 100 µM each time.

Take `CC(C)(C)OC(=O)N(CCCCNC(=O)OCc1ccccc1)CCCNC(=O)OCc1ccccc1`: the TGI in the assay with SNB-75 CNS is more than 100 µM; in the assay with CCRF-CEM leukemia it was more than 100 µM; in the assay with K-562 leukemia, more than 100 µM; with NCI-H522 lung, 19.4 µM; with EKVX NSCLC, more than 100 µM; in the assay with A498 renal, more than 100 µM. Besides, the TGI was more than 100 µM with MDA-MB-435; more than 100 µM with MCF7 breast; more than 100 µM with DU-145 prostate; 30 µM in the assay with MOLT-4 leukemia; more than 100 µM in the assay with SN12C renal.

For `CCOc1ccc2[nH]c3c(C)c4ccncc4c(C)c3c2c1`, the TGI with SNB-75 CNS is 3.1 µM; with CCRF-CEM leukemia, more than 100 µM; in the assay with K-562 leukemia, more than 100 µM; in the assay with NCI-H522 lung it was 2.77 µM; with EKVX NSCLC, 2.9 µM; in the assay on A498 renal, 3.2 µM. In addition, the TGI with SN12C renal was determined as 1.93 µM.

`O=C1c2ccccc2C(=O)c2cc(N=Nc3c(O)ccc4ccccc34)ccc21`: the TGI in the assay on SNB-75 CNS, in the assay on CCRF-CEM leukemia, in the assay with K-562 leukemia, in the assay on NCI-H522 lung, with EKVX NSCLC and in the assay on A498 renal was more than 100 µM each time. Moreover, the TGI in the assay on MDA-MB-435, in the assay with MDA-N, in the assay on DU-145 prostate, with MOLT-4 leukemia and in the assay on SN12C renal was more than 100 µM throughout.

On to `Brc1ccc(C[P+]2(c3ccccc3)CCCCC2)cc1`, for which the TGI was 77.1 µM in the assay with SNB-75 CNS; more than 100 µM with CCRF-CEM leukemia; more than 100 µM in the assay with K-562 leukemia; more than 100 µM in the assay with NCI-H522 lung; more than 100 µM in the assay on EKVX NSCLC; more than 100 µM in the assay with A498 renal. The TGI in the assay on MOLT-4 leukemia and in the assay with SN12C renal was more than 100 µM each time.

The values are drawn from PubChem BioAssay (NCI).
